Laboratory results: PMC10044449 (Xenobiotica; the fate of foreign compounds in biological …, 2022)
Several values for one entry are separate records, joined by “and”; a condition that tells them apart may be missing. Identical values can stand only once.

Assays:
[1] = Prediction of in vivo CLH from in vitro CLint; format: in vitro ADME, rat; conditions: for Predicted in vivo CLH: rat
[2] = Plasma protein binding; format: in vitro ADME; conditions: male, CD-1, mouse, pH 7.4, Mean fu (fraction unbound), 37 °C
[3] = Liver microsomal metabolic stability; format: in vitro ADME, mouse
[4] = Liver microsomal metabolic stability
[5] = UHPLC/MS metabolite characterisation, liver microsome incubations; format: in vitro ADME; conditions: 5 minute rat liver microsome incubation
[6] = as above; format: in vitro ADME; conditions: 15 minute human microsome incubation
[7] = test system: Escherichia coli GUS; conditions: ref Pellock et al. 2018; cited from earlier work
[8] = test system: human hepatocytes; experiment: UHPLC/MS metabolite characterisation, hepatocyte incubations; format: in vitro ADME; conditions: 120 minute human hepatocyte incubation
[9] = UHPLC/MS metabolite characterisation, liver microsome incubations; format: in vitro ADME; conditions: 5 minute mouse liver microsome incubation
[10] = Liver microsomal binding; format: in vitro ADME; conditions: human, liver microsomes, pH 7.4
[11] = mice received ca. 0.4 mg/kg; ref Bhatt et al. 2020; cited from earlier work
[12] = Hepatocyte metabolic stability; conditions: human, hepatocytes
[13] = Caco-2 bidirectional permeability; conditions: human, Caco-2, pH 7.4
[14] = test system: Caco-2 cells; experiment: Caco-2 bidirectional permeability; conditions: Caco-2, without inhibitor mix
[15] = Liver microsomal metabolic stability; format: in vitro ADME, rat
[16] = Efficacy in a mouse model; format: in vivo; conditions: corresponds to ca. 0.4 mg/kg in mice
[17] = Hepatocyte metabolic stability; conditions: Sprague Dawley, rat, hepatocytes
[18] = Prediction of in vivo CLH from in vitro CLint; format: in vitro ADME
[19] = Mouse pharmacokinetic study; format: in vivo, Swiss albino mice; conditions: mice; for AUC(0-t): AUClast
[20] = Liver microsomal binding; format: in vitro ADME; conditions: ICR/CD-1, mouse, liver microsomes, pH 7.4
[21] = test system: microbial versus mammalian β-glucuronidases; conditions: ref Pellock et al. 2018; cited from earlier work
[22] = Plasma protein binding; format: in vitro ADME; conditions: both, human, pH 7.4, Mean fu (fraction unbound), 37 °C
[23] = Plasma protein binding; format: in vitro ADME; conditions: rat plasma
[24] = Prediction of in vivo CLH from in vitro CLint; format: in vitro ADME, mouse; conditions: for Predicted in vivo CLH: mouse
[25] = Liver microsomal binding; format: in vitro ADME; conditions: Sprague Dawley, rat, liver microsomes, pH 7.4
[26] = Hepatocyte metabolic stability; conditions: ICR/CD-1, mouse, hepatocytes
[27] = ICR/CD-1, mouse, liver microsomes, pH 7.4
[28] = Sprague Dawley, rat, liver microsomes, pH 7.4

Question: With `C1CCc2c(c(N3CCOCC3)nc3sc4c(N5CCNCC5)nnnc4c23)C1` [UNC10201652, 4-(8-(piperazin-1-yl)-1,2,3,4-tetrahydro-[1,2,3]triazino[4′,5′:4,5]thieno[2,3-c]isoquinolin-5-yl)morpholine] as the compound, how does the “Scaled hepatocyte CLint as % of hepatic blood flow” value ([1]; rat hepatocytes) read?
Answer: The value was > 60 % of hepatic blood flow.

Question: And the “Predicted in vivo CLH” value ([1]; scaled from hepatocyte CLint)?
Answer: The value was 59.8 mL/min/kg.

Question: What about the “Predicted in vivo CLH” value ([1]; scaled from microsomal CLint) of the same compound?
Answer: The value was 43.5 mL/min/kg.

Question: What about the fraction unbound at 4 h, 2 μM [2] of the same compound?
Answer: The fraction unbound at 4 h, 2 μM was 0.0648.

Question: And the half-life at 1 μM [3, 27]?
Answer: The half-life at 1 μM was 12 min.

Question: And the microsomal CLint at 1 μM [3, 27]?
Answer: The microsomal CLint at 1 μM was 115 µL/min/mg.

Question: What about the “Stability in control incubation in the absence of NADPH” value (from here on “Stability in control incubation”) ([3]; mouse liver microsomes, without NADPH, 45 min) of the same compound?
Answer: The value was “stable”.

Question: What about the “Stability in control incubation” value ([4]; human liver microsomes, without NADPH, 45 min) of the same compound?
Answer: Its value is “stable”.

Question: And the half-life at 1 μM ([4]; human, microsomes, pH 7.4)?
Answer: Its half-life at 1 μM is 28.8 min.

Question: And the microsomal CLint at 1 μM ([4]; human, microsomes, pH 7.4)?
Answer: Its microsomal CLint at 1 μM is 48.1 µL/min/mg.

Question: And the “Area percentage in sample (% of total drug-related material by MS area)” value [5]?
Answer: Its value is “ca. 92%”.

Question: And the “Area percentage in sample (% of total drug-related material by MS area)” value [6]?
Answer: The value was “ca. 82%”.

Question: And the IC50 [7]?
Answer: The IC50 was 117 nM.

Question: And the “Area percentage in sample (% of total drug-related material by MS area)” value [8]?
Answer: Its value is “ca. 48%”.

Question: And the “Area percentage in sample (% of total drug-related material by MS area)” value [9]?
Answer: The value was “ca. 86%”.

Question: What about the fraction unbound at 4 h, 2 μM [10] of the same compound?
Answer: Its fraction unbound at 4 h, 2 μM is 0.642.

Question: And the “Efficacy in a mouse model” value [11]?
Answer: The value was “good efficacy”.

Question: What about the half-life at 1 μM [12] of the same compound?
Answer: Its half-life at 1 μM is 66.4 min.

Question: What about the hepatocyte CLint at 1 μM [12] of the same compound?
Answer: Its hepatocyte CLint at 1 μM is 20.9 µL/min/1e6 cells.

Question: What about the efflux ratio at 120 min, 10 μM [13] of the same compound?
Answer: Its efflux ratio at 120 min, 10 μM is 2.7.

Question: And the “Mean A-B Papp” value ([14]; 120 min, pH 7.4)?
Answer: The value was 5.88 cm/s (×10^−6).

Question: And the “Mean B-A Papp” value ([14]; 120 min, pH 7.4)?
Answer: Its value is 15.9 cm/s (×10^−6).

Question: And the half-life at 1 μM [15, 28]?
Answer: The half-life at 1 μM was 7.14 min.

Question: What about the microsomal CLint at 1 μM [15, 28] of the same compound?
Answer: The microsomal CLint at 1 μM was 194 µL/min/mg.

Question: What about the “Stability in control incubation” value ([15]; rat liver microsomes, without NADPH, 45 min) of the same compound?
Answer: The value was “stable”.

Question: What about the Local gut concentration [16] of the same compound?
Answer: Its Local gut concentration is “approximately 90 μM”.

Question: And the half-life at 1 μM [17]?
Answer: The half-life at 1 μM was 9.89 min.

Question: What about the hepatocyte CLint at 1 μM [17] of the same compound?
Answer: The hepatocyte CLint at 1 μM was 140 µL/min/1e6 cells.

Question: What about the “Predicted CLH as % of hepatic blood flow” value ([18]; human) of the same compound?
Answer: Its value is “approximately 22 % of hepatic blood flow”.

Question: And the “Predicted in vivo CLH” value ([18]; human, scaled from hepatocyte CLint)?
Answer: Its value is 4.65 mL/min/kg.

Question: And the “Predicted in vivo CLH” value ([18]; human, scaled from microsomal CLint)?
Answer: The value was 3.51 mL/min/kg.

Question: What about the “Predicted CLH in human” value ([18]; overall figure from microsomal and hepatocyte data) of the same compound?
Answer: The value was 4 mL/min/kg.

Question: What about the AUC(0-inf) ([19]; male, Swiss albino, mouse, plasma, iv, 3 mg/kg, AUCINF, IV 3 mg/kg) of the same compound?
Answer: Its AUC(0-inf) is 154 ng·h/mL.

Question: What about the AUC(0-t) ([19]; male, Swiss albino, mouse, plasma, iv, 3 mg/kg, IV 3 mg/kg) of the same compound?
Answer: Its AUC(0-t) is 137 ng·h/mL.

Question: What about the Vd ([19]; male, Swiss albino, mouse, plasma, iv, 3 mg/kg, Vss, IV 3 mg/kg) of the same compound?
Answer: Its Vd is 16.7 L/kg.

Question: And the AUC(0-t) ([19]; male, Swiss albino, mouse, plasma, po, 3 mg/kg, PO 3 mg/kg)?
Answer: Its AUC(0-t) is roughly 20 ng·h/mL.

Question: What about the Cmax ([19]; male, Swiss albino, mouse, plasma, po, 3 mg/kg, Cmax, PO 3 mg/kg) of the same compound?
Answer: The Cmax was 15.2 ng/mL.

Question: What about the Tmax ([19]; male, Swiss albino, mouse, plasma, po, 3 mg/kg, Tmax, PO 3 mg/kg) of the same compound?
Answer: Its Tmax is 15 min.

Question: And the “Tolerability / clinical signs” value ([19]; 3 mg/kg IV and PO, with and without ABT, up to 24 h post dose)?
Answer: Its value is “no clinical signs were observed”.

Question: What about the “Plasma concentration at the 24 h time point” value ([19]; IV 3 mg/kg, 24 h) of the same compound?
Answer: Its value is “not detectable”.

Question: And the “Decrease in plasma clearance after ABT” value ([19]; IV 3 mg/kg, ABT versus no ABT)?
Answer: Its value is “ca. 2.5 fold”.

Question: And the “Increase in Vss after ABT” value ([19]; IV 3 mg/kg, ABT versus no ABT)?
Answer: The value was “ca. 2 fold”.

Question: And the “Increase in plasma half-life after ABT” value ([19]; IV 3 mg/kg, ABT versus no ABT)?
Answer: Its value is “ca. 6 fold”.

Question: And the “CL (plasma clearance)” value ([19]; IV 3 mg/kg, 3 mg/kg)?
Answer: Its value is 325.0 mL/min/kg.

Question: And the Vss ([19]; IV 3 mg/kg, 3 mg/kg)?
Answer: Its Vss is 16.7 L/kg.

Question: What about the “Time of Cmax post dose” value ([19]; PO 3 mg/kg) of the same compound?
Answer: Its value is 15 min.

Question: And the “F (oral bioavailability, from AUClast)” value ([19]; PO 3 mg/kg + ABT 50 mg/kg 2 h prior)?
Answer: Its value is 184%.

Question: What about the “Increase in plasma Cmax after ABT” value ([19]; PO 3 mg/kg, ABT versus no ABT) of the same compound?
Answer: Its value is “greater than 10 fold”.

Question: And the “F (oral bioavailability, from AUClast)” value ([19]; PO 3 mg/kg, 3 mg/kg)?
Answer: The value was 15% and 15^c %.

Question: And the fraction unbound at 4 h, 2 μM [20]?
Answer: Its fraction unbound at 4 h, 2 μM is 0.453.

Question: What about the “Specificity microbial versus mammalian β-glucuronidases” value [21] of the same compound?
Answer: Its value is “highly specific inhibitor”.

Question: And the fraction unbound at 4 h, 2 μM [22]?
Answer: Its fraction unbound at 4 h, 2 μM is 0.0548.

Question: What about the “Extent of plasma protein binding” value [23] of the same compound?
Answer: Its value is 89%.

Question: What about the “Scaled hepatocyte CLint as % of hepatic blood flow” value ([24]; mouse hepatocytes) of the same compound?
Answer: Its value is > 60 % of hepatic blood flow.

Question: And the “Predicted in vivo CLH” value ([24]; scaled from hepatocyte CLint)?
Answer: The value was 75.9 mL/min/kg.

Question: And the “Predicted in vivo CLH” value ([24]; scaled from microsomal CLint)?
Answer: Its value is 42.1 mL/min/kg.

Question: What about the fraction unbound at 4 h, 2 μM [25] of the same compound?
Answer: The fraction unbound at 4 h, 2 μM was 0.618.

Question: What about the half-life at 1 μM [26] of the same compound?
Answer: Its half-life at 1 μM is 11.9 min.

Question: What about the hepatocyte CLint at 1 μM [26] of the same compound?
Answer: The hepatocyte CLint at 1 μM was 116 µL/min/1e6 cells.

Question: For `COc1ccc2c(c1)[C@]13CCCC[C@@H]1[C@H](C2)N(C)CC3` [dextromethorphan, reference compound], which microsomal CLint at 1 μM ([4]; human, microsomes, pH 7.4) is on record?
Answer: Its microsomal CLint at 1 μM is 44.8 µL/min/mg.

Question: With `C[C@]12CC[C@@H]3c4ccc(OS(=O)(=O)O)cc4CC[C@H]3[C@@H]1CCC2=O` [oestrone 3-sulfate, reference compound] as the compound, how does the Efflux ratio [14] read?
Answer: Its Efflux ratio is 105.
